Measurements reported in patent EP4737445A1, “NOVEL SATURATED HETEROCYCLE-SUBSTITUTED HETEROARYL-CARBONOHYDRAZONOYL DICYANIDE COMPOUND AND USE THEREOF” (Korea Institute of Science and Technology, priority 2023, dated 2025).

Columns and labels:
TDP-43 BiFC cells = test: Cell viability (stained nuclei count) in TDP-43-BiFC cells; type: cell-based; conditions: Forskolin-only group = 100%
Method: (§1) To screen for new TDP-43 aggregation inhibitors, a TDP-43-BiFC cell model that facilitates observation of TDP-43 aggregate formation in living cells was used. Specifically, TDP-43-BiFC cells were dispensed into a 384-well plate, and the next day, the compounds prepared according to Examples 1 to 46 were treated at concentrations of 3 and 10 µM, respectively, together with Forskolin (treatment concentration 30 µM), which is a compound that induces TDP-43 aggregation by activating the phosphorylation enzyme PKA. After 48 hours, nuclei within cells were stained using Hoechst (treatment concentration 1 µg/mL), and BiFC fluorescence intensity was automatically quantified using Operetta (PerkinElmer) to count the stained nuclei in each well from the entire plate. The group treated only with Forskolin, which induces TDP-43 aggregation, was set as the reference point with 100% TDP-43 aggregation state, and the effect was confirmed by the formula "(BiFC fluorescence intensity by the compounds synthesized according to the Examples of the disclosure - fluorescence intensity of the untreated control group)/(fluorescence intensity of the control group treated only with Forskolin that induces TDP-43 aggregation - fluorescence intensity of the untreated control group) × 100". In addition, the degree of cytotoxicity induced by the newly synthesized compounds was also calculated using the formula "(number of stained nuclei in the compound-treated group/number of stained nuclei in the Forskolin-treated group) × 100", with the group treated only with Forskolin as the reference point at 100% viability. From the treatment results, substances that inhibit intracellular TDP-43 aggregation were identified through screening from a series of candidates based on the criteria of 80% or more TDP-43 aggregation inhibition and 60% cell viability at a compound treatment concentration of 3 µM.
(§2) Furthermore, to confirm the TDP-43 aggregation inhibitory effect according to the concentration of the compounds screened in Experimental Example 3, the screened compounds were treated to […] at concentrations of 0.003, 0.01, 0.03, 0.1, 0.3, 1, 3, and 10 µM, respectively, together with Forskolin (treatment concentration 30 µM), which is a TDP-43 aggregation-inducing substance. After 48 hours, cell images were examined to analyze the TDP-43 aggregation reaction and degree of cytotoxicity. The IC50 and toxicity of the compounds were analyzed by nonlinear regression analysis using Prism software (GraphPad). The calculated results for representative compounds are shown in Table 4 below: TDP-43 protein aggregation inhibitory effect and cell viability of novel compounds.

CYP2C19 = target: T1, CYP2C19 (Homo sapiens, UniProt P33261); test: CYP isoenzyme activity inhibition in human liver microsomes, CYP2C19; type: in vitro ADME; conditions: 10 µM compound; human liver microsomes 0.25 mg/mL; relative to control without compound
T1 construct: human liver microsomes (0.25 mg/mL); from tissue; host or cells: human liver microsomes
Method: (§3) The CYP isoenzyme activity inhibitory effect by the compounds prepared according to Examples 1 to 46 was confirmed. Specifically, human liver microsomes (0.25 mg/mL), 0.1 M phosphate buffer solution (pH 7.4), a substrate drug cocktail of five drug metabolizing enzymes (Phenacetin 50 µM, Diclofenac 10 µM, S-mephenytoin 100 µM, Dextromethorphan 5 µM, and Midazolam 2.5 µM), and the compounds were added at concentrations of 0 or 10 µM, respectively, and pre-incubated at 37°C for 5 minutes, and then NADPH generation system solution was added and incubated at 37°C for an additional 15 minutes. Thereafter, an acetonitrile solution containing an internal standard (Terfenadine) was added to terminate the reaction, and after centrifugation for 5 minutes (14,000 rpm, 4°C), the supernatant was injected into an LC-MS/MS system to simultaneously analyze the metabolites of the substrate drugs, thereby evaluating the drug metabolizing enzyme inhibitory activity.
(§4) The metabolites of each CYP isoenzyme marker drug generated through the reaction were analyzed using a Shimadzu Nexera XR system and TSQ vantage (Thermo). A Kinetex C18 (2.1 × 100 mm, 2.6 µm, particle size; Phenomenex, USA) was used as the HPLC column, and (A) distilled water containing 0.1% formic acid and (B) acetonitrile containing 0.1% formic acid were used as mobile phases, and a gradient program as shown in Table 6 below was applied.
(§5) The generated metabolites were quantified using MRM (Multiple Reaction Monitoring) quantitative mode, and Xcalibur (version 1.6.1) was used for data analysis. To show the CYP isoenzyme activity inhibitory effect of the novel compounds prepared according to the Examples of the disclosure, the % activity of CYP isoenzymes relative to the control group without compound addition is shown in Table 6 below. Additionally, to confirm the difference in effect according to substituents, Comparative Compounds 1 and 5, which are two compounds that share a similar parent nucleus structure with Compounds 1 to 46 of the disclosure while Cy is substituted with aromatic heteroaryl instead of saturated heterocyclyl, were selected as comparative compounds and their activities are shown together.

CYP2D6 = target: T2, CYP2D6 (Homo sapiens, UniProt P10635); test: CYP isoenzyme activity inhibition in human liver microsomes, CYP2D6; type: in vitro ADME; conditions: 10 µM compound; human liver microsomes 0.25 mg/mL; relative to control without compound
T2 construct: human liver microsomes (0.25 mg/mL); from tissue; host or cells: human liver microsomes
Method: as §3, §4, §5

[1] = Liver microsomal stability, rat; type: in vitro ADME; conditions: 1 µM compound; 0.5 mg/mL microsomes; NADPH; 30 minutes at 37°C
Method: (§6) Liver microsomal stability by the compounds prepared according to Examples 1 to 46 was confirmed. Specifically, four types of liver microsomes (human, dog, rat, and mouse each at 0.5 mg/mL), 0.1 M phosphate buffer solution (pH 7.4), and the compounds at 1 µM concentration were added and pre-incubated at 37°C for 5 minutes, and then NADPH generation system solution was added and incubated at 37°C for an additional 30 minutes. Thereafter, an acetonitrile solution containing an internal standard (chloropropamide) was added to terminate the reaction, and after centrifugation for 5 minutes (14,000 rpm, 4°C), the supernatant was injected into an LC-MS/MS system to analyze the substrate drug, thereby evaluating the metabolic stability of 8 compounds.
(§7) The amount of remaining substrate through the reaction was analyzed using a Shimadzu Nexera XR system and TSQ vantage (Thermo). A Kinetex XB-C18 (2.1 × 100 mm, 2.6 µm, particle size; Phenomenex, USA) was used as the HPLC column, and (A) distilled water containing 0.1% formic acid and (B) acetonitrile containing 0.1% formic acid were used as mobile phases. Analyst software (version 1.6.3) and Xcalibur (version 1.6.1) were used for data analysis. The calculated results are shown in Table 5 below: Liver microsomal stability data of novel compounds from […] (human, rat, and mouse).

CYP2C9 = target: T3, CYP2C9 (Homo sapiens, UniProt P11712); test: CYP isoenzyme activity inhibition in human liver microsomes, CYP2C9; type: in vitro ADME; conditions: 10 µM compound; human liver microsomes 0.25 mg/mL; relative to control without compound
T3 construct: human liver microsomes (0.25 mg/mL); from tissue; host or cells: human liver microsomes
Method: as §3, §4, §5

[2] = Liver microsomal stability, mouse; type: in vitro ADME; conditions: 1 µM compound; 0.5 mg/mL microsomes; NADPH; 30 minutes at 37°C
Method: as §6, §7

TDP-43 protein = target: T4, TDP-43 protein (Homo sapiens, UniProt Q13148); test: TDP-43 aggregation inhibition in TDP-43-BiFC cell model (Forskolin-induced); type: cell-based; conditions: for inhibition at 3 µM: read-out: TDP-43 protein aggregation inhibitory effect: Aggregation inhibitory effect (%) (@3 uM)
T4 construct: BiFC fluorescent-protein fragments (two complementary halves); expressed in transfected cells
Method: as §1, §2

CYP3A4 = target: T5, CYP3A4 (Homo sapiens, UniProt P08684); test: CYP isoenzyme activity inhibition in human liver microsomes, CYP3A4; type: in vitro ADME; conditions: 10 µM compound; human liver microsomes 0.25 mg/mL; relative to control without compound
T5 construct: human liver microsomes (0.25 mg/mL); from tissue; host or cells: human liver microsomes
Method: as §3, §4, §5

T5 sequence (P08684 whole entry): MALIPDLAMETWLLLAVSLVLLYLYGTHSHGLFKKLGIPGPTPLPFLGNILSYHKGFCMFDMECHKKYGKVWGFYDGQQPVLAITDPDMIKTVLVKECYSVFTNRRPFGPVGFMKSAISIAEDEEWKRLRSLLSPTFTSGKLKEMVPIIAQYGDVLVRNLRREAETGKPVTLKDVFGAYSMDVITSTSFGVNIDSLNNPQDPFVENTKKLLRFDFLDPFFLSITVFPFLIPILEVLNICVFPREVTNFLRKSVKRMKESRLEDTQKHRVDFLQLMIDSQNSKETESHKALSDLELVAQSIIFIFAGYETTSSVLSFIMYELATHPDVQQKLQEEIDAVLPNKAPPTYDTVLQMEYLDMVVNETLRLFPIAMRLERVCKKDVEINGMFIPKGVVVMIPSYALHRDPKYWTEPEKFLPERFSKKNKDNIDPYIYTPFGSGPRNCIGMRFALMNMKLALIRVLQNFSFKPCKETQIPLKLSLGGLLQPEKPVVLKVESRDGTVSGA
T4 sequence (Q13148 whole entry, the tested form may be a part): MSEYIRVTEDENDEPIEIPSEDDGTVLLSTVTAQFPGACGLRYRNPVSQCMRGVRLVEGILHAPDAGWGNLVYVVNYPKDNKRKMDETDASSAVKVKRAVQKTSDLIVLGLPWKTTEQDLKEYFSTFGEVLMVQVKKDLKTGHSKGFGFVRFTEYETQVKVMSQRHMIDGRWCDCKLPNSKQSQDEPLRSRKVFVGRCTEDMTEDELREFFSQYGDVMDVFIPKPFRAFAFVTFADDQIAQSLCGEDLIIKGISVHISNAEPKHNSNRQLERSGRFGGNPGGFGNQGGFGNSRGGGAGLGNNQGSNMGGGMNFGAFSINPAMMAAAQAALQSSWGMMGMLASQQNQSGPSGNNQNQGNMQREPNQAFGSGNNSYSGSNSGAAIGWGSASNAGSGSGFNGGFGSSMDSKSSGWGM
T3 sequence (P11712 whole entry): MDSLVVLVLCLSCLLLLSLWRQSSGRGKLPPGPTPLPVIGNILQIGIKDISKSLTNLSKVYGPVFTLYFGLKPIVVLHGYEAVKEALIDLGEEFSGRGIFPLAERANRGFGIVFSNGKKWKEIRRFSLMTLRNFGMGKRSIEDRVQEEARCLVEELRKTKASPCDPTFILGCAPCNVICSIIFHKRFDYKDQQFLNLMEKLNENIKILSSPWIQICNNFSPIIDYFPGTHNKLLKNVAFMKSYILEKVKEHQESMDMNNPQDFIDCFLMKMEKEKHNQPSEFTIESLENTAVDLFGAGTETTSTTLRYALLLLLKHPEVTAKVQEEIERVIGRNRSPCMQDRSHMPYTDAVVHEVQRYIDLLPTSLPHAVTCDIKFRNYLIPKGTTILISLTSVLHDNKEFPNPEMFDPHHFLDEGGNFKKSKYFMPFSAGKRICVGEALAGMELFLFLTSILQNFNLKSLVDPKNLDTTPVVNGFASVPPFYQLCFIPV
T2 sequence (P10635 whole entry): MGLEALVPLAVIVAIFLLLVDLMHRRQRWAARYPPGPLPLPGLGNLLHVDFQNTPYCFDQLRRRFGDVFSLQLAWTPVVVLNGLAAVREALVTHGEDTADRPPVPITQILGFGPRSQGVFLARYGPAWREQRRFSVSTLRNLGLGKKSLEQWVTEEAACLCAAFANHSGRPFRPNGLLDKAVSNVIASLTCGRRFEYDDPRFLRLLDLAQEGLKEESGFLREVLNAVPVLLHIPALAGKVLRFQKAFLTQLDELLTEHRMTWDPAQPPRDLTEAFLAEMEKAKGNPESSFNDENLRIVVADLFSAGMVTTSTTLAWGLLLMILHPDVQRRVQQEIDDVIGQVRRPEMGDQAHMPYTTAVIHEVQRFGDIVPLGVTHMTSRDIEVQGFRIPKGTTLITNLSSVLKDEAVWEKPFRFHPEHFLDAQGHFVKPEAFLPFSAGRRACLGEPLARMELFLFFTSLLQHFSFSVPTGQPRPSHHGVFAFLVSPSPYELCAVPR
T1 sequence (P33261 whole entry): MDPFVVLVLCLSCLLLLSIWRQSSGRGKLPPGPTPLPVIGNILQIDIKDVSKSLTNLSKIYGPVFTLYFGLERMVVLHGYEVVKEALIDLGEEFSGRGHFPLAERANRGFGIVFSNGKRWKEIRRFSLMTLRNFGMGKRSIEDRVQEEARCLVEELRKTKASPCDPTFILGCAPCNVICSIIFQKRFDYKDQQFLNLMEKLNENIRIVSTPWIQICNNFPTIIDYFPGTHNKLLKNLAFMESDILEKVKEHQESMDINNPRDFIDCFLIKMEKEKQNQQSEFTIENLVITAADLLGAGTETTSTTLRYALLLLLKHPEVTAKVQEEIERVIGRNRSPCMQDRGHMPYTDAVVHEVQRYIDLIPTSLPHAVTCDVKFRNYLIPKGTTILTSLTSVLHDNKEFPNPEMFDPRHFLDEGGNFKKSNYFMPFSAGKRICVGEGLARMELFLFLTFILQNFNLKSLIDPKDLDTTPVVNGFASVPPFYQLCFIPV

| Compound | Cell viability (%) (@ 3 uM) (TDP-43 BiFC cells) | CYP2C19 (% activity) (CYP2C19) | CYP2D6 (% activity) (CYP2D6) | Rat microsomes (% remaining) [1] | CYP2C9 (% activity) (CYP2C9) | Mouse microsomes (% remaining) [2] | inhibition at 3 µM (TDP-43 protein) | CYP3A4 (% activity) (CYP3A4) | IC50 (TDP-43 protein) |
| --- | --- | --- | --- | --- | --- | --- | --- | --- | --- |
| N#CC(C#N)=NNc1ccc2nc(N3CCOCC3)oc2c1 [Compound 4, (2-morpholinobenzo[d]oxazol-6-yl)carbonohydrazonoyl dicyanide] | 104.2% | 93.4 % activity | > 100 % activity | 80.9 % remaining | 93.2 % activity | 98.5 % remaining | 100% | 94 % activity |  |
| N#CC(C#N)=NNc1ccc2nc(N3CC4CCC(C3)O4)oc2c1 [Compound 26, (2-(8-oxa-3-azabicyclo[3.2.1]octan-3-yl)benzo[d]oxazol-6-yl)carbonohydrazonoyl dicyanide] | 76.1% | 82.1 % activity | 82.1 % activity | 95.1 % remaining | 53.3 % activity | 99 % remaining | 94.8% | 81.3 % activity | 248 nM |
| Cn1c(N2C3CCC2COC3)nc2ccc(NN=C(C#N)C#N)cc21 [Compound 34, (2-(3-oxa-8-azabicyclo[3.2.1]octan-8-yl)-1-methyl-1H-benzo[d]imidazol-6-yl)carbonohydrazonoyl dicyanide] | 59.5% | 80.6 % activity | 92.4 % activity | 97.1 % remaining | 80.8 % activity | 78.2 % remaining | 82.4% | 84.3 % activity | 10 nM |
| CC(=O)N1CCN(c2nc3ccc(NN=C(C#N)C#N)cc3s2)CC1 [Compound 30, (2-(4-acetylpiperazin-1-yl)benzo[d]thiazol-6-yl)carbonohydrazonoyl dicyanide] | 83.1% | 86.2 % activity | 88.9 % activity | 91.9 % remaining | 86.2 % activity | 83.8 % remaining | 88% | 74.6 % activity | 146 nM |
| CCn1c(N2CCOCC2)nc2cc(NN=C(C#N)C#N)ccc21 [Compound 33, (1-ethyl-2-morpholino-1H-benzo[d]imidazol-5-yl)carbonohydrazonoyl dicyanide] | 55.0% | 78.6 % activity | 97.9 % activity | 96.8 % remaining | 28.8 % activity | 89 % remaining | 93.9% | 75.4 % activity | 124 nM |
| Cn1c(N2CCOCC2)nc2ccc(NN=C(C#N)C#N)cc21 [Compound 5, (1-methyl-2-morpholino-1H-benzo[d]imidazol-6-yl)carbonohydrazonoyl dicyanide] | 109.2% | 90.2 % activity | > 100 % activity | 77.8 % remaining | 98 % activity | 91.9 % remaining | 94.7% | 86.1 % activity |  |
| CC1COCCN1c1nc2ccc(NN=C(C#N)C#N)cc2o1 (centres unmarked) [Compound 16, (2-(3-methylmorpholino)benzo[d]oxazol-6-yl)carbonohydrazonoyl dicyanide] | 97.8% | > 100 % activity | 92.1 % activity | 49.6 % remaining | 87 % activity | 89.5 % remaining | 100% | 96.7 % activity |  |
| N#CC(C#N)=NNc1ccc2nc(N3CCNCC3)oc2c1 [Compound 25, (2-(piperazin-1-yl)benzo[d]oxazol-6-yl)carbonohydrazonoyl dicyanide] | 76.7% | 85.7 % activity | 93.5 % activity |  | 93.5 % activity |  | 98.2% | 91.5 % activity | 53 nM |
| CN1CCN(c2nc3ccc(NN=C(C#N)C#N)cc3o2)CC1 [Compound 14, (2-(4-methylpiperazin-1-yl)benzo[d]oxazol-6-yl)carbonohydrazonoyl dicyanide] | 101.4% | 95.5 % activity | > 100 % activity |  | 88 % activity |  | 100% | 96.8 % activity |  |
| N#CC(C#N)=NNc1ccc2nc(N3CCNCC3)sc2c1 [Compound 24, (2-(piperazin-1-yl)benzo[d]thiazol-6-yl)carbonohydrazonoyl dicyanide] | 83.1% | 67.9 % activity | 74.2 % activity |  | 72.0 % activity |  | 97.9% | 74.7 % activity | 53 nM |
| CC(C)N1CCN(c2nc3ccc(NN=C(C#N)C#N)cc3s2)CC1 [Compound 27, (2-(4-isopropylpiperazin-1-yl)benzo[d]thiazol-6-yl)carbonohydrazonoyl dicyanide] | 104.8% | 95.4 % activity | 92.3 % activity |  | 58.5 % activity |  | 48.2% | 59.8 % activity |  |
